Values quoted from earlier work, collected in patent US20130133101A1, “PLANTS RESISTANT TO PATHOGENS AND METHODS FOR PRODUCTION THEREOF” (GENOPLANTE-VALOR, priority 2010, published 2013).
Non-standard residues stand in square brackets, D forms with d. sY = N[C@@H](Cc1ccc(OS(=O)(=O)O)cc1)C(=O)O

Tests used:
[1] = tested on: Phoma nareissi; details: in vitro, dose-dependent manner
[2] = tested on: Botrytis tulipae; details: in vitro, dose-dependent manner

## H-[sY]I[sY]T-OH [PSKβ]
[1]
  mycelium growth inhibition: inhibit in vitro the mycelium growth
[2]
  mycelium growth inhibition: inhibit in vitro the mycelium growth

## H-[sY]I[sY]TQ-OH [PSKα]
[1]
  mycelium growth inhibition: inhibit in vitro the mycelium growth
[2]
  mycelium growth inhibition: inhibit in vitro the mycelium growth
